Data published in ChEMBL document CHEMBL4842322, “A naphthalimide-polyamine conjugate preferentially accumulates in hepatic carcinoma metastases as a lysosome-targeted antimetastatic agent” (Eur J Med Chem, 2021).

Key:
Assay type in all cases: functional, cell-based
HepG2 = assay: Cytotoxicity against human HepG2 cells assessed as inhibition of cell growth incubated for 48 hrs by MTT assay; conditions: HepG2, 48 h
Huh-7 = assay: Cytotoxicity against human Huh-7 cells assessed as inhibition of cell growth incubated for 48 hrs by MTT assay; conditions: Huh-7, 48 h
MDA-MB-231 = assay: Cytotoxicity against human MDA-MB-231 cells assessed as inhibition of cell growth incubated for 48 hrs by MTT assay; conditions: MDA-MB-231, 48 h
MCF7 = assay: Cytotoxicity against human MCF7 cells assessed as inhibition of cell growth incubated for 48 hrs by MTT assay; conditions: MCF7, 48 h
A549 [1] = assay: Cytotoxicity against human A549 cells assessed as inhibition of cell growth incubated for 48 hrs by MTT assay; conditions: A549, 48 h
A549 [2] = assay: Cytotoxicity against cisplatin-resistant human A549 cells assessed as inhibition of cell growth incubated for 48 hrs by MTT assay; conditions: A549, 48 h

Measured: IC50

NCCCCNCCCN1C(=O)c2cccc3cc(NC(=O)CN)cc(c23)C1=O
> 30 µM: HepG2 | Huh-7 | MDA-MB-231 | MCF7 | A549 [1] | A549 [2]
